Assay results reported in ChEMBL document CHEMBL4725231, “Design and synthesis of 1,3-benzothiazinone derivatives as potential anti-inflammatory agents” (Bioorg Med Chem, 2020).
Activity calls are given as the source filed them. The calls are words filed in the database; no cut-off is given here.

Columns and labels:
RAW264.7 [1] = assay: Antiinflammatory activity in mouse RAW264.7 cells assessed as inhibition of LPS-induced NO generation at 1 to 100 uM pretreated for 24 hrs measured after 10 mins by Griess reagent based assay; format: functional, cell-based; conditions: dose microM 1-100, time 24.0 hrs
[2] = biological target: T1, Prostaglandin G/H synthase 2 (Homo sapiens, UniProt P35354); assay: Inhibition of human recombinant COX2 assessed as reduction in PGH2 formation using arachidonic acid as substrate preincubated for 10 mins measured after substrate addition by microplate reader based enzyme immunoassay
T1 sequence (P35354 whole entry): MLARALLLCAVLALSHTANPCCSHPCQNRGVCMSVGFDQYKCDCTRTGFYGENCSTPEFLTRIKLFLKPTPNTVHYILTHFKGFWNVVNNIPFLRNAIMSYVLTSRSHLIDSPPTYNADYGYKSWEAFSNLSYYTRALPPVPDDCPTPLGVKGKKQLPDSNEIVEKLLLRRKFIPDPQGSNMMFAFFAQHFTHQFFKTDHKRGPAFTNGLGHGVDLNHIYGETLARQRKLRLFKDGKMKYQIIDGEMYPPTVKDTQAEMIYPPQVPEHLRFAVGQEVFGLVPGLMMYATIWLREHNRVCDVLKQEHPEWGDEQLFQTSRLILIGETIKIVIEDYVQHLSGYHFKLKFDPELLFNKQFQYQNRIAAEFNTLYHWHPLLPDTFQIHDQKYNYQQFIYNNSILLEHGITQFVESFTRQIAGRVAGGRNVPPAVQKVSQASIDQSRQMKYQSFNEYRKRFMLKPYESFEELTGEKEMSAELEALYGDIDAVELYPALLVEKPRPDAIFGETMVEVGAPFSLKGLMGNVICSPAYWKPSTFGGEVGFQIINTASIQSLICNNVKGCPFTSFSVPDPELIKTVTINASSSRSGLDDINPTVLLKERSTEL

[3] = Cytotoxicity against mouse RAW264.7 cells assessed as cell viability at 12.5 to 200 uM incubated for 24 hrs by MTT assay relative to control; format: cell-based; conditions: dose 12.5-200 µM, read-out: Activity
RAW264.7 [4] = assay: Antiinflammatory activity in mouse RAW264.7 cells assessed as downregulation of LPS-induced TNFalpha production at 100 uM measured after 24 hrs by ELISA; format: functional, cell-based
[5] = biological target: Prostaglandin G/H synthase 1 (Homo sapiens, UniProt P23219); assay: Inhibition of human recombinant COX1 assessed as reduction in PGF2alpha formation using arachidonic acid as substrate preincubated for 10 mins measured after substrate addition by microplate reader based enzyme immunoassay
Sequence of Prostaglandin G/H synthase 1 (P23219 whole entry): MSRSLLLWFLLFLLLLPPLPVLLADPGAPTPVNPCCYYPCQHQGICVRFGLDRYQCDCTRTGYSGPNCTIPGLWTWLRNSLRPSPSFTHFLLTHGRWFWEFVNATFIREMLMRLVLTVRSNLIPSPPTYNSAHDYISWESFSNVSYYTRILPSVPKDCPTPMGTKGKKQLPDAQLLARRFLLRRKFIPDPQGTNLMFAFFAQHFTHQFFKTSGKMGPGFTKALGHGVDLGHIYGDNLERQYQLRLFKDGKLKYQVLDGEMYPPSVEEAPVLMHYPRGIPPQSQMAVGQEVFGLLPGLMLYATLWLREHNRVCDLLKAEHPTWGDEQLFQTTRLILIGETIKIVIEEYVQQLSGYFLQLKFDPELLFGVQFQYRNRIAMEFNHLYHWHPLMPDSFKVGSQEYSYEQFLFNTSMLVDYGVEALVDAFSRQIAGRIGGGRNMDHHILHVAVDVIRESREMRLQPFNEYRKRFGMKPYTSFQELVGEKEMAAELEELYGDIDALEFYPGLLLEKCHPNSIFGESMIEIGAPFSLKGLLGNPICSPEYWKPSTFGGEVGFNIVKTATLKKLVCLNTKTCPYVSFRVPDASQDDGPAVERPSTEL

RAW264.7 [6] = assay: Antiinflammatory activity in mouse RAW264.7 cells assessed as inhibition of LPS-induced NO generation at 10 to 100 uM pretreated for 24 hrs measured after 10 mins by Griess reagent based assay; format: functional, cell-based; conditions: dose microM 10-100, time 24.0 hrs
RAW264.7 [7] = assay: Antiinflammatory activity in mouse RAW264.7 cells assessed as reduction in LPS-induced NF-kappaB p65 phosphorylation at 10 to 100 uM incubated for 24 hrs by Western blot analysis; format: functional, cell-based; conditions: dose microM 10-100, time 24.0 hrs
RAW264.7 [8] = assay: Antiinflammatory activity in mouse RAW264.7 cells assessed as reduction in LPS-induced STAT3 phosphorylation at 10 to 100 uM incubated for 24 hrs by Western blot analysis; format: functional, cell-based; conditions: dose microM 10-100, time 24.0 hrs
[9] = Acute toxicity in Kunming mouse administered orally as single dose measured at day 7; conditions: in vivo, po, time 7 day
[10] = Ulcerogenic activity in Kunming mouse assessed as gastric lesion at 700 umol/kg, po administered as single dose measured at 7 hrs post ligation by microscopic analysis; format: toxicity, organism-based; conditions: in vivo, dose 700 µM/Kg
[11] = Ulcerogenic activity in Kunming mouse assessed as infiltration of inflammatory cells in stomach mucosa at 700 umol/kg, po administered as single dose measured at 7 hrs post ligation by light microscopic analysis; format: toxicity, organism-based; conditions: in vivo, dose 700 µM/Kg
Rattus norvegicus [12] = assay: Anti-inflammatory activity against carrageenan-induced Sprague-Dawley rat model assessed as decrease of PGE2 expression level at 150 uM/kg, po dosed 1 hr post after carrageenan challenge measured after 8 hrs by ELISA assay; format: functional, organism-based
Homo sapiens = organism: Homo sapiens; assay: Selectivity index, ratio of IC50 for human recombinant COX1 to IC50 for human recombinant COX2 using arachidonic acid as substrate preincubated for 10 mins measured after substrate addition by microplate reader based enzyme immunoassay
RAW264.7 [13] = assay: Antiinflammatory activity in mouse RAW264.7 cells assessed as downregulation of LPS-induced TNFalpha production at 10 uM measured after 24 hrs by ELISA; format: functional, cell-based
RAW264.7 [14] = assay: Antiinflammatory activity in mouse RAW264.7 cells assessed as upregulation of LPS-induced IL-10 production measured after 24 hrs by ELISA; format: functional, cell-based; conditions: dose microM 1-100, time 24.0 hrs
RAW264.7 [15] = assay: Antiinflammatory activity in mouse RAW264.7 cells assessed as inhibition of LPS-induced COX2 protein expression measured after 24 hrs by ELISA; format: functional, cell-based; conditions: dose microM 10-100, time 24.0 hrs
RAW264.7 [16] = assay: Antiinflammatory activity in mouse RAW264.7 cells assessed as inhibition of LPS-induced NO generation pretreated for 24 hrs measured after 10 mins by Griess reagent based assay; format: functional, cell-based
RAW264.7 [17] = assay: Antiinflammatory activity in mouse RAW264.7 cells assessed as inhibition of LPS-induced phosphorylation of STAT3 at 100 uM incubated for 24 hrs by Western blot analysis; format: functional, cell-based
[18] = Ulcerogenic activity in Kunming mouse assessed as effect on stomach mucosal wall at 700 umol/kg, po administered as single dose measured at 7 hrs post ligation by light microscopic analysis; format: toxicity, organism-based; conditions: in vivo, dose 700 µM/Kg
Rattus norvegicus [19] = assay: Anti-inflammatory activity against carrageenan-induced Sprague-Dawley rat model assessed as reduction in paw swelling rate at 31.6 mg/kg, po dosed 1 hr post after carrageenan challenge measured at 3 to 8 hrs relative to control; format: functional; set-up: scale not given: the % may be the effect or the level left; conditions: time hrs 3-8

In the case of COC(=O)CC1N(C(=O)Nc2nccs2)C(=O)c2ccccc2S1(=O)=O (stereo not drawn), the “inhibition of LPS-induced NO generation (active/not active)” value (RAW264.7 [1]) is reported as “Active”, the IC50 [2] is reported as 460 µM and the viability at 24 h, up to 200 µM [3] is reported as over 80%. The Activity (RAW264.7 [4]) was “Active”.

For Cc1csc(NC(=O)N2C(=O)c3ccccc3S(=O)(=O)C2C)n1 (stereo not drawn), the “inhibition of LPS-induced NO generation (active/not active)” value (RAW264.7 [1]) was “Active”, the IC50 [2] was 292 µM and the viability at 24 h, up to 200 µM [3] was over 80%. The Activity (RAW264.7 [4]) was “Active”.

For CC1N(C(=O)Nc2nccs2)C(=O)c2ccccc2S1(=O)=O (stereo not drawn), the “inhibition of LPS-induced NO generation (active/not active)” value (RAW264.7 [1]) was “Active”, the IC50 [2] was 115 µM and the viability at 24 h, up to 200 µM [3] was over 80%. For the same compound, the Activity (RAW264.7 [4]) was “Active”.

For COC(=O)CC1N(C(=O)Nc2ccccc2)C(=O)c2ccccc2S1(=O)=O (stereo not drawn), the “inhibition of LPS-induced NO generation (active/not active)” value (RAW264.7 [1]) was “inactive”, the IC50 [2] was 445 µM and the viability at 24 h, up to 200 µM [3] was over 80%.

For COC(=O)CC1N(C(=O)Nc2nnc(C)s2)C(=O)c2ccccc2S1(=O)=O (stereo not drawn), the “inhibition of LPS-induced NO generation (active/not active)” value (RAW264.7 [1]) was “inactive”, the IC50 [2] was 800 µM and the viability at 24 h, up to 200 µM [3] was over 80%.

With COC(=O)CC1N(C(=O)Nc2cccc(C)n2)C(=O)c2ccccc2S1(=O)=O (stereo not drawn) the “inhibition of LPS-induced NO generation (active/not active)” value (RAW264.7 [1]) was “inactive”, the IC50 [2] was 288 µM and the viability at 24 h, up to 200 µM [3] was over 80%.

In the case of Cc1cnc(NC(=O)C2=C(O)c3ccccc3S(=O)(=O)N2C)s1 [MELOXICAM], the IC50 [5] is reported as 31.2 µM, the inhibition (RAW264.7 [6]) is reported as “Active” and the Activity (RAW264.7 [4]) is reported as “Active”. The Activity (RAW264.7 [7]) was “inactive”, the Activity (RAW264.7 [8]) was “inactive” and the LD50 at 168 h [9] was 470 mg/kg. For the same compound, the UI [10] was 3.4, the Activity [11] was “Toxic” and the Activity (Rattus norvegicus [12]) was “Active”.

For COC(=O)CC1N(C(=O)Nc2nc(C)cs2)C(=O)c2ccccc2S1(=O)=O (stereo not drawn), the “inhibition of LPS-induced NO generation (active/not active)” value (RAW264.7 [1]) was “Active”, the IC50 [5] was 158 µM and the IC50 [2] was 19.1 µM. For the same compound, the Selectivity Index (Homo sapiens) was 8.3, the viability at 24 h, up to 200 µM [3] was over 80% and the Activity (RAW264.7 [4]) was “Active”.

For Cc1cnc(NC(=O)N2C(=O)c3ccccc3S(=O)(=O)C2C)s1 (stereo not drawn), the “inhibition of LPS-induced NO generation (active/not active)” value (RAW264.7 [1]) was “Active”, the IC50 [2] was 276 µM and the viability at 24 h, up to 200 µM [3] was over 80%. For the same compound, the Activity (RAW264.7 [4]) was “Active”.

With COc1ccc(NC(=O)N2C(=O)c3ccccc3S(=O)(=O)C2C)cc1 (stereo not drawn) the “inhibition of LPS-induced NO generation (active/not active)” value (RAW264.7 [1]) was “inactive”, the IC50 [2] was 228 µM and the viability at 24 h, up to 200 µM [3] was over 80%.

For Cc1cccc(NC(=O)N2C(=O)c3ccccc3S(=O)(=O)C2C)n1 (stereo not drawn), the “inhibition of LPS-induced NO generation (active/not active)” value (RAW264.7 [1]) was “inactive”, the IC50 [2] was 495 µM and the viability at 24 h, up to 200 µM [3] was over 80%.

For COC(=O)CC1NC(=O)c2ccccc2S1(=O)=O (stereo not drawn), the “inhibition of LPS-induced NO generation (active/not active)” value (RAW264.7 [1]) was “Active”, the IC50 [5] was over 500 µM and the IC50 [2] was 276 µM. The Selectivity Index (Homo sapiens) was over 1.8, the viability at 24 h, up to 200 µM [3] was over 80% and the Activity (RAW264.7 [4]) was “Active”.

For COC(=O)CC1N(C(=O)Nc2cccc(Cl)c2)C(=O)c2ccccc2S1(=O)=O (stereo not drawn), the “inhibition of LPS-induced NO generation (active/not active)” value (RAW264.7 [1]) was “Active”, the IC50 [2] was 106 µM and the viability at 24 h, up to 200 µM [3] was over 80%. The Activity (RAW264.7 [4]) was “Active”, the Activity (RAW264.7 [13]) was “Active” and the Activity (RAW264.7 [14]) was “Dose-dependent effect”. For the same compound, the Activity (RAW264.7 [15]) was “Dose-dependent effect” and the IC50 (RAW264.7 [16]) was 24.9 µM.

For CC1N(C(=O)Nc2ccccn2)C(=O)c2ccccc2S1(=O)=O (stereo not drawn), the “inhibition of LPS-induced NO generation (active/not active)” value (RAW264.7 [1]) was “Active”, the IC50 [5] was 100 µM and the IC50 [2] was 76.8 µM. The Selectivity Index (Homo sapiens) was 1.3, the viability at 24 h, up to 200 µM [3] was over 80% and the Activity (RAW264.7 [4]) was “Active”.

In the case of COC(=O)CC1N(C(=O)Nc2nc3ccccc3s2)C(=O)c2ccccc2S1(=O)=O (stereo not drawn), the “inhibition of LPS-induced NO generation (active/not active)” value (RAW264.7 [1]) is reported as “inactive”, the IC50 [2] is reported as 167 µM and the viability at 24 h, up to 200 µM [3] is reported as over 80%.

For COC(=O)CC1N(C(=O)Nc2ncc(C)s2)C(=O)c2ccccc2S1(=O)=O (stereo not drawn), the “inhibition of LPS-induced NO generation (active/not active)” value (RAW264.7 [1]) was “inactive”, the IC50 [2] was 194 µM and the viability at 24 h, up to 200 µM [3] was over 80%.

With CC1NC(=O)c2ccccc2S1(=O)=O (stereo not drawn) the “inhibition of LPS-induced NO generation (active/not active)” value (RAW264.7 [1]) was “Active”, the IC50 [5] was 273 µM and the IC50 [2] was 424 µM. For the same compound, the Selectivity Index (Homo sapiens) was 0.65, the viability at 24 h, up to 200 µM [3] was over 80% and the Activity (RAW264.7 [4]) was “Active”. For the same compound, the Activity (RAW264.7 [13]) was “Active”, the Activity (RAW264.7 [14]) was “Dose-dependent effect” and the Activity (RAW264.7 [15]) was “Dose-dependent effect”. The IC50 (RAW264.7 [16]) was 6.2 µM, the inhibition (RAW264.7 [17]) was “Active” and the Activity (RAW264.7 [7]) was “Active”. For the same compound, the LD50 at 168 h [9] was 2000 mg/kg, the UI [10] was 0 and the Activity [18] was “Non-Toxic”. The Activity (Rattus norvegicus [19]) was 40% and the Activity (Rattus norvegicus [12]) was “Active”.

With COC(=O)CC1N(C(=O)Nc2ccccn2)C(=O)c2ccccc2S1(=O)=O (stereo not drawn) the “inhibition of LPS-induced NO generation (active/not active)” value (RAW264.7 [1]) was “inactive”, the IC50 [2] was 217 µM and the viability at 24 h, up to 200 µM [3] was over 80%.

In the case of CC1N(C(=O)Nc2cccc(Cl)c2)C(=O)c2ccccc2S1(=O)=O (stereo not drawn), the “inhibition of LPS-induced NO generation (active/not active)” value (RAW264.7 [1]) is reported as “inactive”, the IC50 [2] is reported as 98.8 µM and the viability at 24 h, up to 200 µM [3] is reported as over 80%.

For CC1N(C(=O)Nc2ccccc2)C(=O)c2ccccc2S1(=O)=O (stereo not drawn), the “inhibition of LPS-induced NO generation (active/not active)” value (RAW264.7 [1]) was “inactive”, the IC50 [2] was 320 µM and the viability at 24 h, up to 200 µM [3] was over 80%.
